≈ marks a conversion by molar mass, not a printed value. Like-named read-outs stand apart in the source and are kept apart here.
Key:
Assay type in all cases: physicochemical
[1] = Chemical stability in pharmaceutical solvents (weight % remaining in solution, LCMS)
Procedure: Table 4 provides the chemical stability data in some pharmaceutical solvents, expressed as the weight percentage (% w/w) of the final fosfluconazole derivative produced and characterized in example 1 that remained in solution after a certain period of time. The test was carried out twice, and the remaining weight % was determined by Liquid Chromatography-Mass Spectrometry (LCMS).
Table 5 provides the chemical stability data in some pharmaceutical solvents at 25° C., expressed as the weight percentage (% w/w) of the final fosfluconazole derivative produced and characterized in example 2 that remained in solution after a certain period of time. The test was carried out twice, and the remaining weight % was determined by Liquid Chromatography-Mass Spectrometry (LCMS).
Table 6 provides the chemical stability data in some pharmaceutical solvents at 25° C., expressed as the weight percentage (% w/w) of the final fosfluconazole derivative produced and characterized in example 3 that remained in solution after a certain period of time. The test was carried out twice, and the remaining weight % was determined by Liquid Chromatography-Mass Spectrometry (LCMS).
Table 7 provides the chemical stability data in some pharmaceutical solvents, expressed as the weight percentage (% w/w) of the final fosfluconazole derivative produced and characterized in example 4 that remained in solution after a certain period of time. The test was carried out twice, and the remaining weight % was determined by Liquid Chromatography-Mass Spectrometry (LCMS).
Table 8 provides the chemical stability data in some pharmaceutical solvents, expressed as the weight percentage (% w/w) of the final fosfluconazole derivative produced and characterized in example 5 that remained in solution after a certain period of time. The test was carried out twice, and the remaining weight % was determined by Liquid Chromatography-Mass Spectrometry (LCMS).
Table 9 provides the chemical stability data in some pharmaceutical solvents, expressed as the weight percentage (% w/w) of the final fosfluconazole derivative produced and characterized in example 6 that remained in solution after a certain period of time. The test was carried out twice, and the remaining weight % was determined by Liquid Chromatography-Mass Spectrometry (LCMS).
Table 10 provides the chemical stability data in some pharmaceutical solvents, expressed as the weight percentage (% w/w) of the final fosfluconazole derivative produced and characterized in example 14 that remained in solution after a certain period of time. The test was carried out twice, and the remaining weight % was determined by Liquid Chromatography-Mass Spectrometry (LCMS).

[2] = Solubility of fosfluconazole derivatives in pharmaceutical solvents (Table 2); details: thermodynamic from solid
Procedure: The solubility determination method used was as follows: a suspension of 6 mg of the tested fosfluconazole derivative in 500 μl of the applicable pharmaceutical solvent was rotatively shaken for 24 hours at 800 rpm at 25° C. The saturated fosfluconazole derivative solution was filtered (0.45 μm) and 150 μl of the filtrate was diluted in dimethylsulfoxide (50 μl DMSO). This solution was assayed, each assay being carried out in three-fold, by measurement with Liquid Chromatography-Mass Spectrometry (LCMS, 1 μl and 10 μl injection). Standards were prepared by dissolving the corresponding fosfluconazole derivative in DMSO (1 mg/ml). To determine the solubility, four aliquots (0.5, 1, 2, 4 μl) of the standard solution were injected using the same LCMS conditions as for the above exemplary samples.

[3] = Solubility in pharmaceutical solvents (Table 3); details: read-out: solubility
Description: The values within brackets in Table 3 correspond to the calculated fluconazole concentrations taking into account the molecular weights of the relevant fosfluconazole prodrug and fluconazole itself.

[4] = H2O/Kleptose HPB (60/40), 4 hours
[5] = H2O/Kleptose HPB (60/40), 1 day
[6] = H2O/Kleptose HPB (60/40), 2 days
[7] = H2O/Kleptose HPB (60/40), 7 days
[8] = H2O/Kleptose HPB (60/40), 14 days
[9] = aqueous with cosolvent or surfactant or cyclodextrin, H2O/Cremophor RH 40 (80/20), 25° C.
[10] = aqueous with cosolvent or surfactant or cyclodextrin, H2O/Kleptose HPB (60/40), 25° C.
[11] = aqueous with cosolvent or surfactant or cyclodextrin, H2O/Vitamin E TPGS (90/10), 25° C.
[12] = aqueous with cosolvent or surfactant or cyclodextrin, H2O/polysorbate 80 (80/20), 25° C.
[13] = oil or lipid, Miglyol 812, 25° C.
[14] = organic solvent or mixture, PEG 400, 25° C.
[15] = water (pH 2), aqueous buffer, H2O (pH = 2), 25° C.
[16] = water (pH 7), aqueous buffer, H2O (pH = 7), 25° C.
[17] = water (pH 10), aqueous buffer, H2O (pH = 10), 25° C.

Compound | weight percentage that remained in solution ([1]; H2O (pH = 7), 4 hours) [% w/w] | weight percentage that remained in solution ([1]; H2O (pH = 7), 1 day) [% w/w] | weight percentage that remained in solution ([1]; H2O (pH = 7), 2 days) [% w/w] | weight percentage that remained in solution ([1]; H2O (pH = 7), 7 days) [% w/w] | weight percentage that remained in solution ([1]; H2O (pH = 7), 14 days) [% w/w] | weight percentage that remained in solution ([1]; H2O (pH = 10), 4 hours) [% w/w] | weight percentage that remained in solution ([1]; H2O (pH = 10), 1 day) [% w/w] | weight percentage that remained in solution ([1]; H2O (pH = 10), 2 days) [% w/w] | weight percentage that remained in solution ([1]; H2O (pH = 10), 7 days) [% w/w] | weight percentage that remained in solution ([1]; H2O (pH = 10), 14 days) [% w/w] | weight percentage that remained in solution [1, 4] [% w/w] | solubility at 24 h [2, 9] [µg/mL] | solubility at 24 h [2, 10] [µg/mL] | solubility at 24 h [2, 11] [µg/mL] | solubility at 24 h [2, 12] [µg/mL] | solubility at 24 h [2, 13] [µg/mL] | solubility at 24 h [2, 14] [µg/mL] | solubility at 24 h [2, 15] [µg/mL] | solubility at 24 h [2, 16] [µg/mL] | solubility at 24 h [2, 17] [µg/mL] | also measured
CCCCCCCCCC(=O)OCC(COP(=O)([O-])OC(Cn1cncn1)(Cn1cncn1)c1ccc(F)cc1F)OC(=O)CCCCCCCCC.[Na+] (stereo not drawn) [Example 4, sodium 2,3-bis(decanoyloxy)propyl 2-(2,4-difluorophenyl)-1,3-di(1H-1,2,4-triazol-1-yl)propan-2-yl phosphate] | 95.2 | 95.3 | 95.5 | 95.6 | 95.4 | 45.5 | 44.8 | 41.3 | 39.4 | 37.1 | 95.1 | > 10000 | > 10000 | > 10000 | > 10000 | > 10000 | 9000 | < 1000 | 9900 | > 10000 | weight percentage that remained in solution [1, 5]: 95.3 % w/w; weight percentage that remained in solution [1, 6]: 95.3 % w/w; weight percentage that remained in solution [1, 7]: 94.2 % w/w; weight percentage that remained in solution [1, 8]: 87.7 % w/w; weight percentage that remained in solution ([1]; PEG 400, 4 hours): 96.8 % w/w; weight percentage that remained in solution ([1]; PEG 400, 1 day): 95.9 % w/w; weight percentage that remained in solution ([1]; PEG 400, 2 days): 96.7 % w/w; weight percentage that remained in solution ([1]; PEG 400, 7 days): 96.6 % w/w; weight percentage that remained in solution ([1]; PEG 400, 14 days): 97.3 % w/w
CCOP(=O)(O[C@H]1CC[C@@]2(C)C(=CC[C@H]3[C@@H]4CC[C@H]([C@H](C)CCCC(C)C)[C@@]4(C)CC[C@@H]32)C1)OC(Cn1cncn1)(Cn1cncn1)c1ccc(F)cc1F (stereo partly drawn) [Example 5] | – | – | – | – | – | – | – | – | – | – | – | 900 (≈ 1.15 mM) | 500 (≈ 0.639 mM) | 1400 (≈ 1.79 mM) | 4500 (≈ 5.75 mM) | 9700 (≈ 12.4 mM) | 4100 (≈ 5.24 mM) | < 1 | < 1 | < 1 | solubility ([3]; Benzylalcohol, organic solvent or mixture): ≥ 227000 µg/mL; solubility ([3]; Benzylbenzoate, organic solvent or mixture): 90000 µg/mL (≈ 115 mM); solubility ([3]; Ethylbenzoate, organic solvent or mixture): 133000 µg/mL (≈ 170 mM); solubility ([3]; Miglyol 812, oil or lipid): 12000 µg/mL (≈ 15.3 mM); solubility ([3]; N-methylpyrrolidone, organic solvent or mixture): ≥ 227000 µg/mL; solubility ([3]; Sesame oil (LCT), oil or lipid): 10000 µg/mL (≈ 12.8 mM)
CCCCCCCCCOP(=O)([O-])OC(Cn1cncn1)(Cn1cncn1)c1ccc(F)cc1F.[Na+] [Example 14, sodium 2-(2,4-difluorophenyl)-1,3-di(1H-1,2,4-triazol-1-yl)propan-2-yl nonyl phosphate] | 99.1 | 99.3 | 99.2 | 99.2 | 99.4 | 99.3 | 99.3 | 99.4 | 99.3 | 99.9 | 99.5 | > 10000 | > 10000 | > 10000 | > 10000 | 1200 | > 10000 | > 10000 | > 10000 | > 10000 | weight percentage that remained in solution ([1]; H2O (pH = 2), 4 hours): 99.0 % w/w; weight percentage that remained in solution ([1]; H2O (pH = 2), 1 day): 99.1 % w/w; weight percentage that remained in solution ([1]; H2O (pH = 2), 2 days): 99.2 % w/w; weight percentage that remained in solution ([1]; H2O (pH = 2), 7 days): 99.2 % w/w; weight percentage that remained in solution ([1]; H2O (pH = 2), 14 days): 99.6 % w/w; weight percentage that remained in solution [1, 5]: 99.3 % w/w; weight percentage that remained in solution [1, 6]: 99.2 % w/w; weight percentage that remained in solution [1, 7]: 99.3 % w/w; weight percentage that remained in solution [1, 8]: 100.0 % w/w; weight percentage that remained in solution ([1]; PEG 400, 4 hours): 99.3 % w/w; weight percentage that remained in solution ([1]; PEG 400, 1 day): 99.3 % w/w; weight percentage that remained in solution ([1]; PEG 400, 2 days): 99.4 % w/w; weight percentage that remained in solution ([1]; PEG 400, 7 days): 99.4 % w/w; weight percentage that remained in solution ([1]; PEG 400, 14 days): 100.0 % w/w

From patent US20120010173A1 (SEPS PHARMA N.V., priority 2009, published 2012)
